The text below walks through data of ChEMBL document CHEMBL1124290, “6- and 8-hydroxy-3,4-dihydro-3-(dipropylamino)-2H-1-benzopyrans. Dopamine agonists with autoreceptor selectivity” (J Med Chem, 1988).

Assay [1] concerns Mus musculus. Description: Dose required for inhibition of locomotor activity in mice (sc).
Assay [2] relates to Mus musculus. As to the kind of experiment: Dose required for reversal of reserpine-induced depression in mice (sc).
The nature of assay [3]: Ratio of ED50 values for the inhibition of locomotor activity to reversal of reserpine-induced depression. Type of assay: functional.
The test system of another assay is Rattus norvegicus. Description: Dose (ip) giving half-maximal reversal of the gamma-butyrolactone-induced increase in DOPA formation of rat striatum. Type of assay: functional.

A word on the ED50: it is the dose that gives a 50% effect, or the effect in half of the subjects. For the compound `CCCN(CCC)C1COc2c(O)cccc2C1` (stereo unspecified), the ED50 was 0.013 mg/kg in the assay with Mus musculus [1], 3.95 mg/kg with Mus musculus [2] and 0.05 mg/kg with Rattus norvegicus. The Ratio in assay [3] came to 304.

As for `CN1CCc2cccc3c2[C@H]1Cc1ccc(O)c(O)c1-3` [APOMORPHINE], the results for the median effective dose (ED50) with Mus musculus [1], with Mus musculus [2] and in the assay with Rattus norvegicus were 0.021 mg/kg, 0.096 mg/kg and 0.04 mg/kg, respectively.

As for `CCCN(CCC)C1COc2ccc(O)cc2C1` (stereo unspecified), the values for the ED50 with Mus musculus [1], in the assay on Mus musculus [2] and with Rattus norvegicus were 0.17 mg/kg, 13.4 mg/kg and 0.85 mg/kg, respectively. Besides, the Ratio in assay [3] was 79.
